The source of these data is US20240315246A1, “METHOD OF USING SIMAZINE FOR CONTROLLING ANNUAL BLUEGRASS IN COOL SEASON-TURFGRASSES” (priority 2023, published 2024).

In data set [1] the test system is ryegrass. The source says:
For example, when converting from overseeded ryegrass turf to perennial bermudagrass in the spring season, sublethal doses of Sapphire herbicide (or other ryegrass-removal herbicides) are applied to cause the ryegrass to slowly fade away. […] In other aspects, a method of enhancing color and quality of a turf including the cool-season turfgrass species comprises co-administering Simazine with Penoxsulam or other ryegrass-removal herbicides to the turf comprising the cool-season turfgrass species. In such implementations, a sub-lethal dosage application of Simazine in relation to the desirable cool-season turfgrass species is co-administered with Penoxsulam or other ryegrass-removal herbicides.

Another data set relates to Poa annua. In words: Field trial: control of Poa annua in turf comprising cool-season turfgrasses, multiple low-rate applications. The class given is in vivo. The settings on record: multiple applications at rates as low as 0.05 lbs AI/A; no photo documentation. How it is done: (§1) Unless noted otherwise, the data and results shown herein are from trials performed in Phoenix, AZ and would be representative of application of the methods described herein in a hot climate. However, Simazine is effective in management of annual bluegrass infestation in a turf comprising cool-season turfgrass species in cool, high-altitude climates as well as in hot climates (see FIG. 10). The tests were conducted according to standards required by the U.S. Environmental Protection Agency for evaluating herbicides.
However, multiple applications of lower rates may provide greater safety to the ryegrass than a higher rate single application even though both may effectively control the annual bluegrass (FIGS. 4A-6B). Multiple applications of Simazine at lower rates reduce the risk of overdosing the desirable cool-season turfgrass due to application overlaps, which occur often during turf treatments.

A further data set has as its system annual bluegrass. In words: Test turf in a cool high-altitude climate. The format is in vivo, Poa annua. How it is done: FIG. 10 is a photograph of a test turf in a cool high-altitude climate.
as §1

The test system of data set [2] is annual bluegrass (Poa annua). In words: Co-administration with ryegrass-weakening herbicides A and B on ryegrass turf infested with Poa annua. The class given is in vivo. The settings on record: Simazine mixed with herbicide A or B; 60 days after treatment. The source says:
Herbicides A and B were applied at low dosages to weaken the existing ryegrass turf which was infested with Poa annua. Poa annua is not sensitive to either A or B. As shown in the untreated section, Poa annua would otherwise proliferate during the herbicidal treatment at 60 days after treatment, but co-administration with Simazine prevents Poa annua proliferation during the herbicidal treatment.
Because annual bluegrass is not sensitive to certain herbicides used for weakening existing ryegrass, treatment with such herbicides may not be beneficial in removing the turf as the annual bluegrass would proliferate in the area. However, mixing Simazine with herbicides improves the results of the herbicidal treatments in turf removal. […] Annual bluegrass is not sensitive to either herbicide.

Data set [3] has as its system annual bluegrass (Poa annua). In words: Field trial: control of annual bluegrass in ryegrass turf. The class given is in vivo. How it is done: Unless noted otherwise, the data and results shown herein are from trials performed in Phoenix, AZ and would be representative of application of the methods described herein in a hot climate. […] The tests were conducted according to standards required by the U.S. Environmental Protection Agency for evaluating herbicides.
FIG. 1A depicts a ryegrass/annual bluegrass turf test area that was subjected to four treatments. Initial treatments were made in December. Treatment area #1 received a low application rate (0.25 lb AI/A) of Simazine followed by a second low rate application one month later. Treatment area #2 received two medium rate (0.5 lb AI/A) applications on the same schedule as treatment area #1. Treatment area #3 received a single medium rate application. Treatment area #4 received no Simazine applications. The test area was evaluated 90 days after the first application as shown in FIG. 1A and the quantification data is presented in FIG. 1B.
FIG. 2B represents a single application at 0.75 lb AI/A using the 90DF formulation. […] FIG. 3A compares single application of application rates of 0.25 lb AI/A, 0.5 lb AI/A, 0.75 lb AI/A, and 1.0 lb AI/A at 86 days after treatment. FIG. 3B quantifies the percentage of annual bluegrass coverage on the test turf at 79 days after treatment.

Data set [4] relates to seashore Paspalum (Paspalum vaginatum). In words: Selective control of seashore Paspalum in bermudagrass turf. The class given is in vivo. Conditions: single application 0.5 lb AI/A. The source says: (§2) Bermudagrass and seashore Paspalum (Paspalum vaginatum) are both warm-season turfgrasses. However, when one species is desired, often the other species is found to contaminate the desired species. When seashore Paspalum contaminates bermudagrass, the result is undesirable. It was discovered that Simazine may be used to selectively remove the seashore Paspalum because bermudagrass is much more tolerant of Simazine than is seashore Paspalum.

The subject of data set [5] is annual bluegrass (Poa annua). In words: Field trial: control of annual bluegrass in bentgrass turf. The class given is in vivo. The source says: Bentgrass turfgrass species are more sensitive to Simazine application than ryegrass. […] While there was still a large presence of annual bluegrass at 13 days after treatment, the patch of annual bluegrass is visibly ill (FIG. 7A).

Another data set deals with bermudagrass. In words: Tolerance of bermudagrass turf. The class given is in vivo. Conditions: single application 0.5 lb AI/A.
Description: as §2

Data set [6] concerns ryegrass. In words: Safety to ryegrass seeded after treatment of bermudagrass turf. The class given is in vivo. Conditions: applied four days prior to planting ryegrass; 43 days after seeding. The source says:
Simazine may also be applied during the transition of a turf from warm-season turfgrass species to cool-season turfgrass species. Simazine is not injurious to desired cool-season turfgrasses when applied prior to planting seed. FIG. 11A show soon-to-be-dormant bermudagrass turf treated with simazine four days prior to planting ryegrass into the turf.

Data set [7] relates to annual bluegrass (Poa annua). In words: Suppression of annual bluegrass flowers and seedheads in ryegrass turf. The format is in vivo. From the text:
The test turfs shown in FIGS. 9A and 9B are ryegrass turfs infested with Poa annua that received two applications of Simazine at a rate of 0.25 lb AI/A per application.
However, applying a sub-lethal dosage of Simazine in relation to annual bluegrass still improves the quality of the turf comprising cool-season turfgrasses. Using applications that are sub-lethal to annual bluegrass (at least in the near term), simazine treatment suppresses the production of annual bluegrass flowers and seedheads rendering the turf more desirable.
The #1 plot in FIG. 8A was treated with Simazine (0.25 lb AI/A). […] The other areas were untreated and the annual bluegrass there produced prolific flowers and seedheads. FIGS. 9A and 9B show multiple applications made to ryegrass turf infested with Poa annua.

The subject of data set [8] is cool-season turfgrass species. In words: Margin of safety on desired cool-season turfgrass species. Conditions: in vivo.
The mark [9] stands for this setting: ryegrass turf, two applications of 0.25 lb AI/A (FIGS. 9A, 9B).

On to `COc1cnc(OC)n2nc(NS(=O)(=O)c3c(OCC(F)F)cccc3C(F)(F)F)nc12` [Sapphire, 2-(2,2-difluoroethoxy)-N-(5,8-dimethoxy-[1,2,4]triazolo[1,5-c]pyrimidin-2-yl)-6-(trifluoromethyl)benzenesulfonamide], for which, in the data set with ryegrass [1] (sublethal doses of ryegrass-removal herbicide alone), the “colour and quality of ryegrass during conversion to bermudagrass” value is “degrades the color and quality of the ryegrass”.
Take `CCNc1nc(Cl)nc(NCC)n1` [Simazine, 6-chloro-2-N,4-N-diethyl-1,3,5-triazine-2,4-diamine]: the “control of Poa annua” value with Poa annua was “successfully controlled Poa annua”. The “turf colour compared to untreated turf” value in the data set on annual bluegrass is reported as “darker green color”. The “control of annual bluegrass infestation” value in the data set on annual bluegrass (effective dose specific to the climate) is “control of annual bluegrass infestation”. Further, the “annual bluegrass proliferation during herbicidal treatment” value in [2] is “without allowing annual bluegrass to proliferate”. Also, the “selective control of annual bluegrass” value in data set [3] (another site, single application 1.0 lb AI/A, 4 L formulation) is recorded as “selective control of annual bluegrass”. The “annual bluegrass coverage on the test turf” value in data set [3] (single application 0.25 lb AI/A, 79 days after treatment, untreated over 80%) is 50%. For the same compound, the “visual presence of annual bluegrass within the treated turf” value in [3] (single application 1.0 lb AI/A, 79 days after treatment) is on record as “effectively removed visual presence of any annual bluegrass”. The “control of seashore Paspalum” value in [4] is “eradicate seashore Paspalum”. Moreover, in the data set with ryegrass [1] (single application, 1.0 and 0.75 lb AI/A (FIGS. 2A, 2B)), the “colour of treated ryegrass versus untreated” value is given as “deeper green color”. In addition, in the data set on ryegrass [1] (sub-lethal Simazine about 0.25 AI/A included with Sapphire treatment), the “colour and quality of ryegrass turf during conversion to bermudagrass” value was “enhances the color and quality of the ryegrass turf”. Also, the “condition of annual bluegrass patch” value in data set [5] (0.5 lb AI/A, 13 days after treatment) is “visibly ill”. The “coverage of the test area with annual bluegrass” value in data set [5] (0.5 lb AI/A, 38 days after treatment) was “significantly reduced”. The “control of annual bluegrass infestation” value in [5] (application at 0.5 lb AI/A) is “effectively controlled annual bluegrass infestation”. The damage to bermudagrass result in the data set with bermudagrass is recorded as “not damaging bermudagrass”. In the data set with ryegrass [6], the “effect on young ryegrass” value was “did not affect the young ryegrass”. In [7] (plot #1 FIG. 8A, 0.25 lb AI/A), the “flowering and seedhead production in surviving annual bluegrass” value is reported as “suppressed”; the “kill of annual bluegrass” value is “only a portion of the annual bluegrass was killed”. In data set [7] (setting [9]), the “formation of flowers and seedheads” value is reported as “greatly suppressed”; the “kill of Poa annua” value was “did not kill the Poa annua”.
With `CCNc1nc(Cl)nc(NC(C)C)n1` [atrazine], the “margin of safety on desired cool-season turfgrass species, compared with Simazine” value in [8] is “lesser margin of safety”.
